Results: US20090069241A1, “Compositions and Methods for Use of Pigment Epithelial Derived Factor (PEDF) Peptide Fragments” (Yale University, priority 2006, published 2009)

Assays:
Assay type in all cases: in vivo, C57/B16 mice
[1] = test system: GFAP; assay: GFAP immunocytochemical labeling of Müller glial cells after transient ischemia
Procedure: (§1) Induction of transient retinal ischemia in C57/B16 mice: Animal experiments were conducted in accordance with ARVO guidelines and were approved by the Animal Care and Use Committee of Yale University School of Medicine. Transient retinal ischemia was induced in one eye and the contralateral eye served as control. During the operation and recovery period, animals were placed on water heating pads at 37° C. Eighty-one 10-14 weeks male C57/B16 mice (Charles River Laboratories, Wilmington, Mass., weighing 25-358) were used in this experiment. To induce retinal ischemia, a previously established technique with some modifications was used (Hughes, 1991, Exp Eye Res. 53(5):573-582; Buchi et al., 1991, Opthalmologica 203 (3): 138-147). Briefly, animals were anesthetized by i.p. injection of a mixture of 100 mg/kg Ketamine+10 mg/kg Xylazine. The corneas were topically anesthetized with 0.5% proparacaine hydrochloride (Bausch & Lomb Pharmaceuticals, Inc., Tampa, Fla.), and the pupils dilated with 2.5% phenylephrine (Bausch & Lomb Pharmaceuticals, Inc., Tampa, Fla.). The anterior chambers were cannulated in fully anesthetized animals with a 30-gauge infusion needle connected by PE10 polyethylene tubing and IV set to a physiological saline reservoir. The intraocular pressure (IOP) of the cannulated eye was raised to 120 mmHg for 60 minutes by elevating the saline reservoir. Retinal ischemia was confirmed by direct microscopic observation of whitening of the fundus. The reperfusion was confirmed visually when needle was withdrawn from the anterior chamber. One group of animals was treated with Vetropolycin® ophthalmic ointment (Pharmaderm, Melville, N. Y.) on the ischemic eyes and allowed to recover for 24 hours, 48 hours, 7 days and 14 days before sacrifice. Other groups were kept for intravitreous injections of the PEDF and PEDF peptides.
Intravitreous injection of PEDF, PEDF peptides and encapsulated PEDF peptide: One group of animals remained uninjected to monitor ischemic damage. All other groups received intravitreal injections, which were performed under an ophthalmic microscope. Experimental groups received 1 μl native PEDF protein (1 μg/μl), PEDF82-121 peptide (1 μg/μl), PEDF76-95 peptide (1 μg/μl), PEDF91-110 peptide (1 μg/μl), PEDF106-125 peptide (1 μg/μl) or PLGA PEDF82-121 nanospheres (0.1 mg/μl, less than 1.6 μg PEDF82-121 peptide when fully released) immediately after the end of the transient ischemia. Intravitreous injection was performed with 30-gauge beveled needle attached to PE10 polyethylene tubing and a 10 μl syringe (Hamilton, Reno, Nev.). The injections were performed through the sclera, approximately 1 mm behind the limbus. The needle remained in the vitreous cavity for 30 seconds after injection then gently withdrawn. […]

[2] = test system: inner retina (INL, IPL, retinal ganglion cell layer); assay: Transient retinal ischemia-reperfusion injury with intravitreous injection; morphometric analysis of inner retina; parameters: thickness of the INL compared with non-ischemia control / thickness of the IPL compared with non-ischemia control / surviving cells in the RGC layer compared with non-ischemia control: concentration or dose not given beside the values; conditions: for surviving cells in the RGC layer compared with non-ischemia control / thickness of the INL compared with non-ischemia control / thickness of the IPL compared with non-ischemia control: single intravitreous injection immediately after ischemia
Procedure: as §1, with “Eighty-one 10-14 weeks male C57/B16 mice (Charles River Laboratories, Wilmington, Mass., weighing 25-358) were used in this experiment. To induce retinal ischemia, a previously established technique with some modifications was used (Hughes, 1991, Exp Eye Res. 53(5):573-582; Buchi et al., 1991, Opthalmologica 203 (3): 138-147).” left out, “The corneas were topically anesthetized with 0.5% proparacaine hydrochloride (Bausch & Lomb Pharmaceuticals, Inc., Tampa, Fla.), and the pupils dilated with 2.5% phenylephrine (Bausch & Lomb Pharmaceuticals, Inc., Tampa, Fla.).” left out
Intravitreous injection of PEDF, PEDF peptides and encapsulated PEDF peptide: One group of animals remained uninjected to monitor ischemic damage. All other groups received intravitreal injections, which were performed under an ophthalmic microscope. […] Intravitreous injection was performed with 30-gauge beveled needle attached to PE10 polyethylene tubing and a 10 μl syringe (Hamilton, Reno, Nev.). The injections were performed through the sclera, approximately 1 mm behind the limbus. The needle remained in the vitreous cavity for 30 seconds after injection then gently withdrawn. Control groups were injected with 1 μl PBS, 1 μl control peptide (1 μg/μl), or blank nanospheres (0.1 mg/μl). […] Vetropolycin® ointment was applied to the injected eyes and animals were allowed to recover for 48 hours or 7 days before sacrifice.
Preparation of retinal tissue: at designated time points, mice were sacrificed by carbon dioxide inhalation followed by, in some cases, cervical dislocation. The eyes were enucleated, fixed in 4% paraformaldehyde for 24 hours, washed with PBS and embedded in paraffin. Five (5) μm thick sections that included the optic nerve were collected. Sections were processed for TUNEL, immunocytochemistry, or histochemical staining with hematoxylin and eosin (Surgipath, Ltd, Richmond, Ill.) using standard methods.
Morphologic and Morphometric Analysis: For each eye, three sections, which included the optic disk and were spaced at least 20 μm apart, were used for morphological analysis. The fields analyzed were 4×250 μm zones sampled from all retinal eccentricities. These zones were 500 μm away from the edge of optic disk or the ora serrata. The average measurement of these 4 zones was used for statistical analysis. The mean thickness of inner nuclear layer (INL) and inner plexiform layer (IPL) was measured using Axiovision3.1 software (Carl Zeiss MicroImaging, Inc., Thornwood, N.Y.). Total surviving cells in the retinal ganglion cell layer at the same locations were counted using light microscopy.
Statistical analysis: Twelve fields per retina were analyzed for each treatment, and a total of 72 fields were used. For statistical analysis, one-way analysis of variance (ANOVA) and Fisher tests were performed; p<0.05 was taken as significant. Data are presented as means and standard deviations.

[3] = test system: STAT3; assay: Western blot of phosphorylated STAT3 in retinas after ischemic injury; conditions: 48 hours after ischemic injury; control retinas: detected only at 24 hours
Procedure: (§2) Induction of transient retinal ischemia in C57/B16 mice: Animal experiments were conducted in accordance with ARVO guidelines and were approved by the Animal Care and Use Committee of Yale University School of Medicine. Transient retinal ischemia was induced in one eye and the contralateral eye served as control. During the operation and recovery period, animals were placed on water heating pads at 37° C. Eighty-one 10-14 weeks male C57/B16 mice (Charles River Laboratories, Wilmington, Mass., weighing […]) were used in this experiment. To induce retinal ischemia, a previously established technique with some modifications was used (Hughes, 1991, Exp Eye Res. 53(5):573-582; Buchi et al., 1991, Opthalmologica 203 (3): 138-147). Briefly, animals were anesthetized by i.p. injection of a mixture of 100 mg/kg Ketamine+10 mg/kg Xylazine. […]
(§3) The effect of PEDF82-121 on STAT3 and Erk after ischemic injury was examined by Western blot. In control retinas subjected to ischemic injury, phosphorylated STAT3 was detected at 24 hours but not at 1 hour, 4 hours, 12 hours or 48 hours after ischemic injury. […] In control retinas, phosphorylated Erk was detect strongly at 4 hours and 12 hours after ischemic injury but was barely detectable at 24 hours and not detected at 48 hours. […]

[4] = test system: Erk; assay: Western blot of phosphorylated Erk in retinas after ischemic injury; conditions: 48 hours after ischemic injury; control retinas: not detected at 48 hours
Procedure: as §2, §3

[5] = 48 hours after ischemia reperfusion

For “PEDF82-121: residues 82 to 121 of human PEDF, PLSVATALSALSLGAEQRTESIIHRALYYDLISSPDIHGT (SEQ ID NO: 3) ((1)..(40) Residues 82-121 of human PEDF; listed as Homo sapiens)”, the “GFAP labeling compared to PBS injections” value ([1]; 48 hours after transient ischemia) was “less GFAP labeling”, the GFAP staining ([1]; 7 days after injury) was “very similar staining” and the “surviving cells in the RGC layer compared with non-ischemia control” value [2, 5] was 80.1%. For the same substance, the “thickness of the INL compared with non-ischemia control” value [2, 5] was 100%, the “thickness of the IPL compared with non-ischemia control” value [2, 5] was 100% and the “protection of the retinal ganglion cell layer (in words)” value ([2]; 48 hours post ischemia, versus PBS or PEDF136-155) was “substantial protection”. For the same substance, the “surviving cells in the RGC layer compared with non-ischemia control” value ([2]; 7 days after injury) was 56.8%, the “thickness of the INL compared with non-ischemia control” value ([2]; 7 days after injury) was 72.8% and the “thickness of the IPL compared with non-ischemia control” value ([2]; 7 days after injury) was 62.7%. For the same substance, the “protection of the retinal ganglion cell layer (in words)” value ([2]; 7 days post ischemia, free single bolus or nanospheres) was “less”, the “IPL thickness after ischemic injury (in words)” value ([2]; compared to PBS injected controls, time not stated) was “maintained the thickness of the IPL” and the “presence of phosphorylated STAT3” value [3] was “also detected at 48 hours”. For the same substance, the “presence of phosphorylated Erk” value [4] was “strongly detected at 48 hours”.
